These results are taken from ChEMBL document CHEMBL3392985, “Dithiocarbamate-thiourea hybrids useful as vaginal microbicides also show reverse transcriptase inhibition: design, synthesis, docking and pharmacokinetic studies” (Bioorg Med Chem Lett, 2015).

Each structure is given as a SMILES string. Converted amounts (≈) assume the structure as drawn.

In general, inhibition refers to the share of the control response that was lost under treatment. In general, MIC refers to the lowest concentration that inhibits growth of the organism. A low value points to a more susceptible organism. Usually Cmax stands for the peak of the concentration-time curve.

A short description of data set [1]: Spermicidal activity against human sperm by microscopic analysis. The class given is functional.
Data set [2] has as its target Human immunodeficiency virus type 1 reverse transcriptase (Human immunodeficiency virus 1) (UniProt Q72547). The experiment in a line: Inhibition of HIV-1 reverse transcriptase using digoxigenin/biotin-labeled dUTP as substrate at 100 ug/ml incubated for 1 hr followed by compound washout measured after 1 hr by non-radioactive ELISA relative to control. A general note: An ELISA detects its analyte on a solid surface through an enzyme-linked reagent.

Another data set deals with Trichomonas vaginalis. The experiment in a line: Antimicrobial activity against Trichomonas vaginalis after 3 to 48 hrs by trypan blue exclusion assay. It is filed as functional.
A further data set is filed under the species Homo sapiens. The experiment in a line: Ratio of nonoxynol-9 MEC to compound MEC for human sperm. It is filed as functional.
Data set [3] in a line: Stability of the compound in simulated vaginal fluid at 100 ng/ml at pH 2 up to 1 hr by LC/MS/MS analysis. It is filed as ADME. Particulars: buffer, pH 2, 1 h.
The test system of a further data set is HeLa. Briefly: Cytotoxicity against human HeLa cells assessed as cell viability at 200 ug/ml after 24 hrs by lactate dehydrogenase release assay. It is filed as cell-based.
Data set [4] in a line: Toxicity against Lactobacillus acidophilus at 200 ug/ml after 24 hrs.
Data set [5] is described as follows: Cmax in rabbit administered administered intravaginally after 1 hr. It is filed as ADME, organism-based, Oryctolagus cuniculus. Particulars: in vivo.
Data set [6] in a line: Terminal half life in rabbit administered intravaginally after 1 hr. It is filed as ADME, organism-based, Oryctolagus cuniculus. Particulars: in vivo, read-out: beta t1/2 (converted).

On to `O=C(NC(=S)N1CCN(C(=S)SCc2ccccc2)CC1)c1ccccc1`, for which, in data set [1], the MEC was determined as 1%. Also, in data set [2], the inhibition came out at 12.3%. In the data set on Trichomonas vaginalis, the MIC came to 62.5 µg/mL (≈ 150 µM).

Turning to `CCCSC(=S)N1CCN(C(=S)Nc2cccnc2)CC1`, the MEC in [1] turned out to be 0.5%. In [2], the inhibition turned out to be 35.4%. Further, in the data set with Trichomonas vaginalis, the MIC worked out at 125 µg/mL (≈ 367 µM).

For `CCCSC(=S)N1CCN(C(=S)NCCc2ccccc2)CC1`, the MEC in [1] is more than 2%. Besides, in data set [2], the inhibition came to 28.4%. Moreover, the MIC with Trichomonas vaginalis stood at 250 µg/mL (≈ 680 µM).

For the molecule `CCCCCCCCSC(=S)N1CCN(C(=S)NC(=O)c2ccccc2)CC1`, the MEC in data set [1] came out at 0.025%. Moreover, the Ratio in the data set filed under Homo sapiens is given as 2. In addition, in [2], the inhibition was found to be 41.3%. Also, the Stability entry in data set [3] is reported as “Stable”. Also, the Activity entry (with HeLa; in data set [4]) was “Non-toxic” each time. In the data set with Trichomonas vaginalis, this molecule had an MIC of 15.6 µg/mL (≈ 35.5 µM).

For `CCCCSC(=S)N1CCN(C(=S)NCc2ccccc2)CC1`, the MEC in data set [1] is reported as more than 2%. Besides, the inhibition in data set [2] is 14.2%. Further, in the data set on Trichomonas vaginalis, the MIC was found to be 500 µg/mL (≈ 1360 µM).

Molecule `CCCCCCSC(=S)N1CCN(C(=S)NCCc2ccccc2)CC1` returned an MEC in data set [1] of 1%. Moreover, the inhibition in data set [2] was found to be 14.8%. Also, the MIC in the data set with Trichomonas vaginalis stood at 250 µg/mL (≈ 610 µM).

Take `CCCCCCCCCc1ccc(OCCOCCOCCOCCOCCOCCOCCOCCOCCO)cc1` [NONOXYNOL 9]: in [1], the MEC is listed as 0.05%. Further, the concentration in [5] peaked (Cmax) at 4.87 ng/mL. In addition, the half-life in data set [6] is 1.45 h. Besides, in the data set on Trichomonas vaginalis, the MIC is 20 µg/mL (≈ 32.4 µM).

`CCCCCCCCSC(=S)N1CCN(C(=S)NCc2ccccc2)CC1`: the MEC in data set [1] was determined as 1%. Besides, in data set [2], the inhibition is 36.5%. In addition, the MIC in the data set with Trichomonas vaginalis is 250 µg/mL (≈ 590 µM).

`CCCSC(=S)N1CCN(C(=S)Nc2ccccc2)CC1` returned an MEC in [1] of more than 2%. The inhibition in data set [2] was found to be 21.5%. The same molecule yielded an MIC with Trichomonas vaginalis of 500 µg/mL (≈ 1470 µM).

Consider `S=C(NCc1ccccc1)N1CCN(C(=S)SCc2ccccc2)CC1`, for which the MEC in [1] was more than 2%. Further, in data set [2], the inhibition is 9.11%. The molecule also had an MIC against Trichomonas vaginalis of 125 µg/mL (≈ 311 µM).

`CCCCCCSC(=S)N1CCN(C(=S)Nc2cccnc2)CC1` returned an MEC in data set [1] of 0.05%. The inhibition in data set [2] is 26.1%. Moreover, the Activity result (in the data set with HeLa; in data set [4]) was “Non-toxic” each time. The MIC in the data set with Trichomonas vaginalis came to 125 µg/mL (≈ 327 µM).

As for `CCCCSC(=S)N1CCN(C(=S)Nc2cccnc2)CC1`, the MEC in data set [1] was more than 2%. In data set [2], the inhibition came to 14.9%. Besides, the MIC with Trichomonas vaginalis was 250 µg/mL (≈ 705 µM).

As to `CCCCSC(=S)N1CCN(C(=S)NCCc2ccccc2)CC1`, the MEC in data set [1] is more than 2%. Also, the inhibition in [2] came to 13.5%. Further, inhibition of growth against Trichomonas vaginalis (MIC) required 250 µg/mL (≈ 655 µM).

`CCCCSC(=S)N1CCN(C(=S)Nc2ccccc2)CC1`: the MEC in data set [1] is more than 2%. Besides, the inhibition in data set [2] was 30.9%. In the data set on Trichomonas vaginalis, the MIC turned out to be 125 µg/mL (≈ 354 µM).

Molecule `S=C(NCCc1ccccc1)N1CCN(C(=S)SCc2ccccc2)CC1` came in with an MEC in data set [1] of more than 2%. In addition, in data set [2], the inhibition is 11.8%. Further, the lowest concentration to inhibit growth in the data set on Trichomonas vaginalis (MIC) was 62.5 µg/mL (≈ 150 µM).

In turn, `CCCCCCSC(=S)N1CCN(C(=S)NCc2ccccc2)CC1` had an MEC in [1] of more than 2%. Besides, the inhibition in data set [2] was 27.3%. The same molecule registered an MIC against Trichomonas vaginalis of 250 µg/mL (≈ 632 µM).

For `CCCSC(=S)N1CCN(C(=S)NCc2ccccc2)CC1`, the MEC in data set [1] turned out to be 1%. For the same molecule, in data set [2], the inhibition was 20.6%. The MIC against Trichomonas vaginalis came out at 15.6 µg/mL (≈ 44 µM).

`S=C(Nc1ccccc1)N1CCN(C(=S)SCc2ccccc2)CC1`: in data set [1], the MEC is on record as more than 2%. In data set [2], the inhibition was 21.9%. The molecule further showed an MIC with Trichomonas vaginalis of 250 µg/mL (≈ 645 µM).

In data set [1], `S=C(Nc1cccnc1)N1CCN(C(=S)SCc2ccccc2)CC1` showed an MEC of 2%. Also, in [2], the inhibition was determined as 25.8%. In the data set with Trichomonas vaginalis, the MIC was more than 500 µg/mL.

`CCCSC(=S)N1CCN(C(=S)NC(=O)c2ccccc2)CC1` gave an MEC in [1] of 0.025%. Moreover, the Ratio in the data set filed under Homo sapiens is listed as 2. Also, the inhibition in [2] was determined as 31.4%. Also, the Activity entry (in the data set with HeLa; in data set [4]) was “Non-toxic” each time. Moreover, in the data set on Trichomonas vaginalis, the MIC came to 62.5 µg/mL (≈ 170 µM).

Take `CCCCSC(=S)N1CCN(C(=S)NC(=O)c2ccccc2)CC1`: the MEC in data set [1] came to 1%. Also, the inhibition in data set [2] was 27.8%. Further, in the data set on Trichomonas vaginalis, it took 125 µg/mL (≈ 328 µM) to inhibit growth (MIC).

In turn, `CCCCCCCCSC(=S)N1CCN(C(=S)NCCc2ccccc2)CC1` registered an MEC in [1] of more than 2%. In addition, the inhibition in [2] turned out to be 15.7%. For the same molecule, 250 µg/mL (≈ 571 µM) was the least that counted as inhibitory in the data set on Trichomonas vaginalis (MIC).

`CCCCCCCCSC(=S)N1CCN(C(=S)Nc2cccnc2)CC1` returned an MEC in data set [1] of 2%. Further, the inhibition in data set [2] was determined as 44.7%. The molecule further showed a minimal inhibitory concentration (MIC) against Trichomonas vaginalis of 62.5 µg/mL (≈ 152 µM).

Regarding `CCCCCCCCSC(=S)N1CCN(C(=S)Nc2ccccc2)CC1`, the MEC in data set [1] is 1%. For the same molecule, in data set [2], the inhibition came to 24%. Besides, the MIC against Trichomonas vaginalis was 125 µg/mL (≈ 305 µM).

`CCCCCCSC(=S)N1CCN(C(=S)Nc2ccccc2)CC1`: in [1], the MEC was more than 2%. In addition, the inhibition in data set [2] worked out at 1.9%. The MIC in the data set with Trichomonas vaginalis was more than 500 µg/mL.

`CCCCCCSC(=S)N1CCN(C(=S)NC(=O)c2ccccc2)CC1` returned an MEC in data set [1] of 0.05%. Besides, the inhibition in [2] is 23.2%. Moreover, the Activity result (in the data set with HeLa; in data set [4]) was “Non-toxic” in each case. Further, 7.78 µg/mL (≈ 19 µM) was the least that counted as inhibitory against Trichomonas vaginalis (MIC).
